“And” between values parts separate entries of the source, which are not always exact repeats. Equal values may be shown once. “Also recorded” adds a separate entry of the source.
How the values were obtained:
[1] = tested on: MRSA; experiment: MIC99 against MRSA (Table 2-1); format: cell-based, Staphylococcus aureus
[2] = tested on: S. aureus; experiment: MIC99 against S. aureus (Table 2-1); format: cell-based, Staphylococcus aureus
[3] = tested on: MRSA DM09808R; experiment: MIC against MRSA DM09808R; format: cell-based, Staphylococcus aureus
[4] = tested on: MRSA DB57964/04; experiment: MIC against MRSA DB57964/04; format: cell-based, Staphylococcus aureus
[5] = tested on: MRSA DM21595; experiment: MIC against MRSA DM21595; format: cell-based, Staphylococcus aureus
[6] = tested on: MRSA DR68004; experiment: MIC against MRSA DR68004; format: cell-based, Staphylococcus aureus; conditions: MRSA DR68004, Source: Blood
[7] = tested on: MRSA QC Strain ATCC BAA1026; experiment: MIC against MRSA QC strain ATCC BAA1026; format: cell-based, Staphylococcus aureus
[8] = tested on: Staphylococcus aureus ATCC29213; experiment: MIC against S. aureus ATCC29213; format: cell-based
[9] = tested on: Staphylococcus aureus ATCC 6538; experiment: MIC against S. aureus ATCC 6538; format: cell-based
[10] = tested on: Straphylococcus aureus ATCC 6538P; experiment: MIC against S. aureus ATCC 6538P; format: cell-based, Staphylococcus aureus
[11] = tested on: Straphylococcus aureus ATCC 25923; experiment: MIC against S. aureus ATCC 25923; format: cell-based, Staphylococcus aureus
[12] = tested on: Streptococcus faecium ATCC 10541; experiment: MIC against Streptococcus faecium ATCC 10541; format: cell-based
[13] = tested on: Streptococcus epidermidis ATCC 12228; experiment: MIC against Streptococcus epidermidis ATCC 12228; format: cell-based
[14] = tested on: Pseudomonas aeruginosa ATCC27853; experiment: MIC against Pseudomonas aeruginosa ATCC27853; format: cell-based
[15] = tested on: Klebsiella pneumoniae ATCC10031; experiment: MIC against Klebsiella pneumoniae ATCC10031; format: cell-based
[16] = pH value in different media; format: physicochemical
Description: The pH values were obtained using an electronic pH meter.

[17] = tested on: rabbit cornea; conditions: in vivo
Description: The particular model used was a 5 mm diameter corneal epithelial abrasion model. Wound healing was monitored by a slit lamp using flourescein disclosure dye so that the size of the wound could be measured. The compounds were applied topically three times per day.

[18] = tested on: MRSA DM21455; experiment: Drug resistance test, 20 serial passages; format: cell-based, Staphylococcus aureus; conditions: MRSA DM21455, FIG. 7
[19] = tested on: Clinical Staphylococcus aureus DM4001; experiment: Cytoplasmic membrane depolarization (DiSC3 dye); format: cell-based; conditions: DiSC3 fluorescence; AM-016 at 12.5 ug/mL
Experimental: Membrane potential-sensitive dye 3,3′-dipropylthiadicarbocyanine iodide (DiSC3) was used to determine the cytoplasmic membrane depolarization activity of AM-016. An overnight culture of clinical Staphylococcus aureus DM4001(source: Eye) was allowed to grow in Muller-Hinton broth (MHB) to OD620=0.3-0.4. Then, the bacteria was collected by centrifugation at 2800 r.p.m at 37° C. for 30 minutes and washed with 5 mM HEPES buffer at pH7. […] The cell suspension was then incubated with 0.1M KCl and 0.4 μM DiSC3 at 37° C. for 30 minutes. Dye uptake was monitored by fluorospectrometry (Photon Technology International (PTI) Photomultiplier Detection Systems, model 814) in a stirred cuvette until the fluorescence signal was stable. The desired concentration of AM-016 was added and the fluorescence was monitored at an excitation wavelength of 622 nm and at an emission wavelength of 670 nm. A blank with dye in the absence of bacteria with same concentration of AM-016 was used as a control.

[20] = Calcein leakage from E. coli lipid extract liposomes; conditions: for % Leakage of calcein: E. coli extract
Experimental: To further investigate antimicrobial action of the active compounds via inner membrane targeting, a calcein leakage study was performed. In brief, liposomes which mimic bacterial membrane (DOPE: […] The lipids were dissolved in methanol/chloroform (1:2, by volume). The solvent was then dried gently using a constant stream of nitrogen gas. Then, the lipid film was placed under vacuum for at least two hours. […] The hydrated vesicles were freeze-thaw (frozen in liquid nitrogen and warmed in water bath) for at least 7 cycles. Extrusion method using mini-extruder (Avanti Polar Lipid Inc.) was used to produce homogeneous large unilamellar vesicles (LUVs). The extrusion was done for at least 10 cycles using a polycarbonate membrane (Whatman, pore size 100 nm) to obtain LUVs with diameter of 100 nm. To separate the calcein encapsulated vesicles from free calcein, gel filtration column Sephadex G-50 was used. The concentrations of eluted liposomes were determined using total phosphorus determination assay. Leakage of calcein from the liposome induced by AM-series compounds could be monitored using fluorescence spectroscopy (Photon Technology International Model 814) at an excitation wavelength of 490 nm and an emission wavelength of 520 nm. […] Those compounds with […] HC50 values have stronger leakage %. […] To further investigate the inner membrane targeting action of AM-series compounds, E. coli lipid extract was used to construct the liposome. […] Therefore, the outer layer of Gram-negative bacteria (LPS) may play important role to impede the AM-series compounds to reach inner membrane. Calcein leakage data strongly support the active compounds are inner membrane targeting.

[21] = tested on: Gram-positive bacteria; experiment: Antimicrobial activity against Gram-positive bacteria (statement); format: cell-based
[22] = tested on: Gram-negative bacteria; experiment: Antimicrobial activity against Gram-negative bacteria (statement); format: cell-based
[23] = tested on: S. aureus and Enterococcus faecalis; conditions: 4 strains, sub-inhibitory concentrations, FIG. 8
[24] = tested on: S. aureus DM4001; experiment: SYTOX green membrane permeabilization assay, S. aureus; conditions: 10 μM
Experimental: S. aureus DM4001 was harvested at early exponential phase and suspended in 40 mM PBS until OD620 of 0.09 was obtained. Then, the bacteria suspension was incubated with 3 μM of SYTOX Green in dark. The mixture was monitored in a stirring cuvette at an excitation wavelength of 504 nm and at an emission wavelength of 523 nm until the fluorescence was stable. Then, 10 μM of AM compounds were added and the changed of fluorescence emissions were monitored.

3,6-bis-[4-(diethylamino)butoxy)]-1-hydroxy-7-methoxy-2,8-bis(3-methylbut-2-enyl)-9H-xanthen-9-one [AM-016]
MIC99 MRSA [1]: 0.39 µg/mL
MIC99 S. aureus [2]: 0.39 µg/mL
Minimum inhibition concentration (MIC) ([3]; MRSA DM09808R, Source: Eye): 1.56 μg/ml and 2.35 μM
MIC ([3]; MRSA-09808R (Eye), Example 10, Mueller Hinton broth dilution): 3.125 µg/mL
Minimum inhibition concentration (MIC) [4]: 0.78 μg/ml and 1.17 μM
Minimum inhibition concentration (MIC) ([5]; MRSA DM21595, Source: Wound): 0.78 μg/ml and 1.17 μM
MIC ([5]; MRSA-21595 (Wound), Example 10, Mueller Hinton broth dilution): 0.395 µg/mL
Minimum inhibition concentration (MIC) [6]: 1.56 μg/ml and 2.35 μM
Minimum inhibition concentration (MIC) [7]: 3.125 μg/ml and 4.70 μM
Minimum inhibition concentration (MIC) [8]: 0.39 μg/ml and 0.59 μM
Minimum inhibition concentration (MIC) [9]: 1.56 μg/ml and 2.35 μM
Minimum inhibition concentration (MIC) [10]: 0.78 μg/ml and 1.17 μM
Minimum inhibition concentration (MIC) [11]: 3.125 μg/ml and 4.70 μM
Minimum inhibition concentration (MIC) [12]: 0.195 μg/ml and 0.295 μM
Minimum inhibition concentration (MIC) [13]: 0.78 μg/ml and 1.17 μM
Minimum inhibition concentration (MIC) [14]: 50 μg/ml and 75.20 μM
Minimum inhibition concentration (MIC) [15]: 40 μg/ml and 60.16 μM
pH ([16]; PBS, 50 μg/ml compound): 6.96 ± 0.01
pH ([16]; PBS, 100 μg/ml compound): 6.97 ± 0.01
pH ([16]; Saline, 50 μg/ml compound): 6.84 ± 0.21
pH ([16]; Saline, 100 μg/ml compound): 6.78 ± 0.05
pH ([16]; Water, 50 μg/ml compound): 6.44 ± 0.27
pH ([16]; Water, 70 μg/ml compound): 6.72 ± 0.23
Cytotoxicity to the rabbit eye in corneal wound healing model [17]: does not exhibit any cytotoxicity
Effect on wound healing (percentage wound closing) [17]: does not delay wound healing
Development of drug resistance [18]: has difficulty in developing drug resistance
Cytoplasmic membrane depolarization [19]: causes membrane depolarization; also recorded: depolarizes
Leakage of calcein from the E. coli lipid extract (in words) [20]: able to induce leakage
% Leakage of calcein ([20]; compound:lipid ratio 1:2): 57.82%
% Leakage of calcein ([20]; compound:lipid ratio 1:4): 58.43%
% Leakage of calcein ([20]; compound:lipid ratio 1:8): 31.70%
Activity against Gram-positive bacteria [21]: active
Activity against Gram-negative bacteria [22]: inactive
Resistance (>4-fold increase in original MIC) in multipassage study [23]: no evidence of resistance or cross-resistance
SYTOX green staining of bacteria (fluorescence microscopy) ([24]; FIG. 14): Large numbers of stained bacteria
Membrane permeabilization (SYTOX green fluorescence emission) ([24]; fluorescence spectroscopy): could induce membrane permeabilization

Source: US20190002429A1, “Derivatives of Xanthone Compounds” (Agency for Science, Technology and Research, priority 2011, published 2019)
